Experimental data: PMC6199744, “Development of Chemical Proteomics for the Folateome and Analysis of the Kinetoplastid Folateome” (ACS Infectious Diseases, 2018)

Tested on: L. major lysate proteins
Assay: Multitargeted bead mixture chemoproteomics, single concentration competition, proteome-wide
Format: binding
Conditions: for fold change / fold change relative to vehicle control: vehicle control = 1; for fold change relative to vehicle control: competition with free ligand

Structure (SMILES): Nc1nc2cccc(-c3ccccc3)c2n1Cc1ccc(Cl)c(Cl)c1 [compound 3]
- fold change vs vehicle control (protein LMJF.22.0730 HY[…], CONSERVED): 1.03
- fold change (protein LMJF.22.1460 I/6 AUTOANTIGEN-LIKE PROTEIN): 1.02
- fold change vs vehicle control (protein LMJF.22.1540 ALANYL-TRNA SYNTHETASE, PUTATIVE): 0.95
- fold change vs vehicle control (protein LMJF.23.0370 […] OXIDASE SUBUNIT 10, PUTATIVE): 1.06
- fold change (protein LMJF.23.0830 NA/H ANTIPORTER-LIKE PROTEIN): 1.19
- fold change (protein LMJF.23.1020 HY[…], UNKNOWN FUNCTION): 0.96
- fold change (protein LMJF.23.1220 T-COMPLEX PROTEIN 1, GAMMA SUBUNIT, PUTATIVE): 1.01
- fold change vs vehicle control (protein LMJF.24.0140 ANKYRIN/TPR REPEAT PROTEIN): 0.99
- fold change (protein LMJF.24.0280 DYNEIN INTERMEDIATE-CHAIN-LIKE PROTEIN): 0.96
- fold change (protein LMJF.24.0770 MALIC ENZYME, PUTATIVE): 0.99
- fold change relative to vehicle control (protein LMJF.24.1510 IGE-DEPENDENT HISTAMINE-RELEASING FACTOR, PUTATIVE): 1.23
- fold change vs vehicle control (protein LMJF.24.1630, SUCCINATE DEHYDROGENASE FLAVOPROTEIN, PUTATIVE): 0.9
- fold change vs vehicle control (protein LMJF.24.1840 LYSOPHOSPHOLIPASE, PUTATIVE): 1.09
- fold change relative to vehicle control (protein LMJF.24.2060 TRANSKETOLASE): 1.1
- fold change (protein LMJF.24.2250 FATTY-ACID DESATURASE, PUTATIVE): 0.99
- fold change vs vehicle control (protein LMJF.25.0120 ELECTRON TRANSFER FLAVOPROTEIN, PUTATIVE): 0.93
- fold change vs vehicle control (protein LMJF.25.0260 DYNEIN LIGHT CHAIN 1, CYTOPLASMIC, PUTATIVE): 1.01
- fold change relative to vehicle control (protein LMJF.25.0910 C[…]): 1.18
- fold change vs vehicle control (protein LMJF.25.1180, ATPASE BETA SUBUNIT, PUTATIVE): 1.09
- fold change (protein LMJF.25.1610 HY[…], CONSERVED): 0.9
- fold change (protein LMJF.25.1620 HY[…], CONSERVED): 1.16
- fold change vs vehicle control (protein LMJF.26.1240 HEAT SHOCK PROTEIN 70-RELATED PROTEIN): 0.94
- fold change vs vehicle control (protein LMJF.26.1710 […] OXIDASE SUBUNIT V, PUTATIVE): 1.08
- fold change vs vehicle control (protein LMJF.26.1960 HY[…], CONSERVED): 0.96
- fold change vs vehicle control (protein LMJF.26.2000 HY[…], CONSERVED): 1.09
- fold change vs vehicle control (protein LMJF.27.0420 RIBOKINASE, PUTATIVE): 1.13
- fold change vs vehicle control (protein LMJF.27.1060 CYSTEINE DESULFURASE, PUTATIVE): 1.05
- fold change (protein LMJF.27.1310 ARGINYL-TRNA SYNTHETASE, PUTATIVE): 0.9
- fold change vs vehicle control (protein LMJF.27.2400 HEAT SHOCK PROTEIN DNAJ, PUTATIVE): 0.99
- fold change vs vehicle control (protein LMJF.28.0110 […] 3 SUBUNIT, PUTATIVE): 0.99
- fold change vs vehicle control (protein LMJF.28.0930 HY[…], CONSERVED): 1.07
- fold change vs vehicle control (protein LMJF.28.0950 HY[…], CONSERVED): 1.01
- fold change vs vehicle control (protein LMJF.28.0980 P27 PROTEIN, PUTATIVE): 1.09
- fold change vs vehicle control (protein LMJF.28.1950 X-PRO, DIPEPTIDYL-PEPTIDASE,SERINE PEPTIDASE, CLAN SC, FAMILY S15, PUTATIVE): 1.06
- fold change relative to vehicle control (protein LMJF.28.2770 HEAT-SHOCK PROTEIN HSP70, PUTATIVE): 0.99
- fold change (protein LMJF.29.0060 TRYPTOPHANYL-TRNA SYNTHETASE, PUTATIVE): 1.05
- fold change (protein LMJF.29.0820 CYSTEINE PEPTIDASE C (CPC)): 0.91
- fold change relative to vehicle control (protein LMJF.29.0850 HIGH MOBILITY GROUP PROTEIN HOMOLOG TDP-1, PUTATIVE): 1.27
- fold change vs vehicle control (protein LMJF.29.1160 TRYPAREDOXIN): 0.99
- fold change (protein LMJF.29.1760 PAR[…] PROTEIN 1D, PUTATIVE): 0.75
- fold change vs vehicle control (protein LMJF.29.1780 D[…] PROTEIN, PUTATIVE): 1.05
- fold change vs vehicle control (protein LMJF.29.2240 AMINOPEPTIDASE, PUTATIVE): 1.03
- fold change (protein LMJF.29.2310 ENOYL-COA HYDRATASE/ISOMERASE-LIKE PROTEIN): 0.98
- fold change (protein LMJF.29.2860 40S RIBOSOMAL PROTEIN S19-LIKE PROTEIN): 1.34
- fold change vs vehicle control (protein LMJF.30.0850 SURFACE PROTEIN AMASTIN, PUTATIVE): 1.12
- fold change (protein LMJF.30.1250 PYRIDOXAL KINASE, PUTATIVE): 0.82
- fold change (protein LMJF.30.1940 SUCCINYL-COA:3-KETOACID-COENZYME A TRANSFERASE- LIKE PROTEIN): 1.02
- fold change vs vehicle control (protein LMJF.30.3190 3-HYDROXY-3-METHYLGLUTARYL-COA REDUCTASE): 0.77
- fold change vs vehicle control (protein LMJF.30.3520 S-ADENOSYL[…]): 1.03
- fold change vs vehicle control (protein LMJF.31.0440 CYTOSKELETON-[…] CAP5 5, PUTATIVE): 0.97
- fold change (protein LMJF.31.1130 N-ACYL-L-AMINO ACID AMIDOHYDROLASE, PUTATIVE): 0.9
- fold change vs vehicle control (protein LMJF.31.1640 THIOLASE PROTEIN-LIKE PROTEIN): 1.31
- fold change (protein LMJF.31.1800 AMINO ACID PERMEASE): 0.96
- fold change (protein LMJF.31.2250 3,2-TRANS-ENOYL-COA ISOMERASE, MIT[…], PUTATIVE): 1
- fold change vs vehicle control (protein LMJF.31.2790 ADP-RI[…], PUTATIVE): 1.03
- fold change (protein LMJF.31.3130 […]-COA CARBOXYLASE BIOTINYLATED […]-LIKE PROTEIN): 0.99
- fold change (protein LMJF.32.0010 HY[…], CONSERVED): 0.78
- fold change vs vehicle control (protein LMJF.32.0400 ATP-DEPENDENT RNA HELICASE, PUTATIVE): 1.02
- fold change vs vehicle control (protein LMJF.32.0520 PROFILIN, PUTATIVE): 1.17
- fold change (protein LMJF.32.1000 […]-COMPLEX PROTEIN, PUTATIVE): 0.92
- fold change vs vehicle control (protein LMJF.32.3010 HY[…], CONSERVED,LEUCINE-RICH REPEAT PROTEIN, PUTATIVE): 1.47
- fold change vs vehicle control (protein LMJF.32.3870 MYOSIN XXI): 0.97
- fold change vs vehicle control (protein LMJF.33.0890, HY[…], CONSERVED): 1.03
- fold change vs vehicle control (protein LMJF.33.1070 HY[…], UNKNOWN FUNCTION): 1.02
- fold change (protein LMJF.33.1330 CYSTEINE CONJUGATE BETA-LYASE, AMINOTRANSFERASE- LIKE PROTEIN): 1.06
- fold change (protein LMJF.33.1610 PEPTIDASE M20/M25/M40, PUTATIVE): 0.91
- fold change relative to vehicle control (protein LMJF.33.1630 CYCLOPHILIN 4, PUTATIVE): 0.93
- fold change vs vehicle control (protein LMJF.33.2300 UDP-GLC 4'-EPIMERASE, PUTATIVE): 0.98
- fold change vs vehicle control (protein LMJF.33.2390 HEAT SHOCK PROTEIN, PUTATIVE): 0.99
- fold change (protein LMJF.33.2410 HY[…], CONSERVED): 1.06
- fold change (protein LMJF.33.3150 40S RIBOSOMAL PROTEIN S13, PUTATIVE): 1.18
- fold change (protein LMJF.34.3500 RUVB-LIKE 1 DNA HELICASE, PUTATIVE): 1.19
- fold change (protein LMJF.34.3670 VACUOLAR ATP SYNTHASE CATALYTIC SUBUNIT A, PUTATIVE): 0.9
- fold change (protein LMJF.34.3740 SERINE PALMITOYLTRANSFERASE-LIKE PROTEIN): 0.95
- fold change (protein LMJF.34.4120 HY[…], CONSERVED): 0.82
- fold change vs vehicle control (protein LMJF.34.4370 20S […] 7 SUBUNIT, (PUTATIVE)): 1.2
- fold change (protein LMJF.35.0370 ATP-DEPENDENT DEAD-BOX RNA HELICASE, PUTATIVE): 1.01
- fold change vs vehicle control (protein LMJF.35.1380, MIT[…], BETA SUBUNIT, PUTATIVE): 1.16
- fold change vs vehicle control (protein LMJF.35.1410 THREONYL-TRNA SYNTHETASE, PUTATIVE): 1.01
- fold change vs vehicle control (protein LMJF.35.1720 CYCLOPHILIN 14, PUTATIVE): 1.09
- fold change (protein LMJF.35.2500 HY[…], CONSERVED): 1.26
- fold change (protein LMJF.35.2730 ACYL-COA DEHYDROGENASE, PUTATIVE): 1.14
- fold change relative to vehicle control (protein LMJF.35.3010 […],TRYPANOTHIONE-DEPENDENT […]): 0.92
- fold change vs vehicle control (protein LMJF.35.3100 ATP-DEPENDENT RNA HELICASE, PUTATIVE): 1.01
- fold change vs vehicle control (protein LMJF.35.3340 6-phosphogluconate dehydrogenase): 1.11
- fold change (protein LMJF.35.3700 GIM5A PROTEIN, PUTATIVE,[…] PROTEIN): 0.85
- fold change vs vehicle control (protein LMJF.35.3840, […] 2 SUBUNIT, PUTATIVE): 0.92
- fold change vs vehicle control (protein LMJF.35.3860 T-COMPLEX PROTEIN 1, ETA SUBUNIT, PUTATIVE): 1
- fold change (protein LMJF.35.4550 HY[…], CONSERVED): 1.56
- fold change (protein LMJF.35.4770 CYCLOPHILIN 40): 0.89
- fold change (protein LMJF.35.4850 […] 1 SUBUNIT, PUTATIVE): 0.85
- fold change (protein LMJF.35.4860 HY[…], CONSERVED): 0.98
- fold change relative to vehicle control (protein LMJF.35.5330 ISOPENTENYL-D[…]-ISOMERASE, PUTATIVE,ISOMERASE, PUTATIVE): 1.32
- fold change vs vehicle control (protein LMJF.36.0180 […] 2): 1.05
- fold change vs vehicle control (protein LMJF.36.0620 HY[…], CONSERVED): 1.06
- fold change vs vehicle control (protein LMJF.36.0990 40S RIBOSOMAL PROTEIN S10, PUTATIVE): 1.12
- fold change vs vehicle control (protein LMJF.36.2020 CHAPERONIN HSP60, MIT[…]): 0.88
- fold change vs vehicle control (protein LMJF.36.3460 HY[…], CONSERVED): 1.04
- fold change (protein LMJF.36.3760 60S RIBOSOMAL PROTEIN L10A, PUTATIVE): 1.19
- fold change vs vehicle control (protein LMJF.36.3840 GLYCYL TRNA SYNTHETASE, PUTATIVE): 0.95
- fold change vs vehicle control (protein LMJF.36.4170 OXIDOREDUCTASE, PUTATIVE): 0.93
- fold change vs vehicle control (protein LMJF.36.5010 40S RIBOSOMAL PROTEIN SA, PUTATIVE): 1.04
- fold change vs vehicle control (protein LMJF.36.5620 ISOLEUCYL-TRNA SYNTHETASE, PUTATIVE): 0.99
- fold change vs vehicle control (protein LMJF.36.6430 PROTEIN TRANSPORT PROTEIN SEC23-LIKE PROTEIN): 1.04
- fold change (protein LMJF.36.6760 HY[…], CONSERVED): 0.97
- fold change vs vehicle control (protein LMJF.36.6910 T-COMPLEX PROTEIN 1, THETA SUBUNIT, PUTATIVE): 1
- fold change vs vehicle control (protein LMJF.36.6940 disulfide isomerase PDI): 1.23
- fold change vs vehicle control (protein LMJF.[…] […] EXOPOLYPHOSPHATASE, PUTATIVE): 0.81
